# Data: patent publication US9198957B2, “Treatment and prevention of bacterial vaginosis and Gardnerella vaginalis infections” (The Trustees of Columbia University in the City of New York, priority 2011, dated 2015)
# Tests used:
# Atopobium vaginae = conditions: reference (80); cited from earlier work
# [1] = system: Gardnerella strain 49145 biofilm; experiment: Inhibition of newly forming biofilm (safranin stain, A462), strain 49145; type: cell-based, Gardnerella vaginalis; conditions: for reduction in biofilm formation (% biofilm density): FIG. 6
# Protocol: (§1) Biofilms of multiple Gardnerella strains [G. Vaginalis is the only species in the genus Gardnerella.] were grown, separately, in vitro in 96-well plates in BHI-supplemented media. Bovine pancreas DNase was added in varying concentrations to biofilm cultures at 0 hours (newly forming biofilms) and 24 hours (established biofilms.) The biofilms were washed, the supernatant was removed, and the biofilms were stained with safranin and solubilized in acetic acid. Biofilm absorbance at A462 nm was measured with a spectrophotometer, which method quantifies the amount of safranin stain taken up by the biofilm. DNase-treated and untreated biofilms were also grown in chamber slides and DAPI staining was performed for fluorescence microscopy.
# (§2) Biofilms were grown in the presence of varying concentrations of antibiotic and DNase administered at t=0 hours to test the effect of the agents on biofilm formation. To test the effects on the degradation of established biofilms, the agents were administered at t=24 hours.
# All cultures and biofilms were grown in ‘biofilm media’ (BHI media+0.3% starch, 0.3% glucose, 0.5 mcg/mL amphotericin B) at 37° C. and 5% CO2. Liquid cultures of strains 49145 or ARG3 were grown overnight to a standardized OD600 of 0.6 and diluted 1:10 prior to aliquoting for biofilms. Cultures were aliquoted into 96-well plates as follows:
# (§3) 180 μL of bacteria and 20 μL of DNase at varying concentrations (1:10 dilutions of 1 mg/mL to final concentrations in the wells as labeled in the figures) or PBS as a control (total volume always 200 μL) were added together at t=0 hours and incubated for 24 hours. They were then washed, stained with safranin and solubilized with ascetic acid, with measurement of absorbance at 462 nm to quantify density of stained material.
# 160 μL of culture, 20 µL of antibiotic at varying concentrations (1:10 and 2-fold dilutions to final concentrations in wells as labeled in the figures), and 20 μL of DNase at varying concentrations (1:10 dilutions as above) with 20-40 μL of PBS used when necessary for controls (wells without antibiotic, DNase, or both) were added to wells at t=0 hours and incubated for 24 hours as above. Biofilms were quantified as above.
# [2] = system: Gardnerella strain ARG3 biofilm; experiment: Inhibition of newly forming biofilm (safranin stain), strain ARG3; type: cell-based, Gardnerella vaginalis; conditions: DNase 10 μg/ml and 100 μg/ml, time=0 hours; FIG. 2
# Protocol: as §1
# Biofilms were grown in the presence of varying concentrations of antibiotic and DNase administered at t=0 hours to test the effect of the agents on biofilm formation. […]
# as §3, with “material. […]” for “material.”
# [3] = system: ATCC Gardnerella strain 49145 biofilms; experiment: Liberation of bacteria from biofilm into supernatant / bacterial killing (colony counts); type: cell-based, Gardnerella vaginalis
# Protocol: Further experiments were conducted to assess whether there is an improved effect on biofilm formation and breakdown by the combined administration of DNase and antibiotics against Gardnerella. The y axis plots the % of biofilm absorbance A462 for each condition. […] The minimum inhibitory concentration (MIC) for the antibiotics was measured by E-testing the relevant strains. Colony counts were performed on both the supernatant and the biofilm components of the culture, and a one-way ANOVA with Bonferroni post-tests were performed using Prism (Graphpad) where DNase was administered at time=24 hours.
# [4] = system: established Gardnerella strain ARG3 biofilms; experiment: Breakdown of established (24 h) biofilm, strain ARG3; type: cell-based, Gardnerella vaginalis; conditions: DNase administered at t=24 hours; FIG. 4
# Protocol: as §1, §2
# (§4) All cultures and biofilms were grown in ‘biofilm media’ (BHI media+0.3% starch, 0.3% glucose, 0.5 mcg/mL amphotericin B) at 37° C. and 5% CO2. Liquid cultures of strains 49145 or ARG3 were grown overnight to a standardized OD600 of 0.6 and diluted 1:10 prior to aliquoting for biofilms. […]
# (§5) For quantification as above, antibiotic concentrations were chosen based on the MIC (⅛-4× MIC).
# [5] = system: established Gardnerella strain 49145 biofilms; experiment: Breakdown of established (24 h) biofilm, strain 49145; type: cell-based, Gardnerella vaginalis; conditions: DNase administered at t=24 hours; FIG. 3
# Protocol: as §1, §2, §4, §5
# G. Vaginalis ARG37 = experiment: Murine model of vaginal colonization; type: in vivo; conditions: co-inoculation with DNase, mice, strain ARG37; FIG. 16
# Description: The same strategy works in the complex environment of the lower genital tract in murine models of vaginal colonization. Models for vaginal colonization of mice with G. Vaginalis and group B Streptococcus have been developed. […] FIG. 16. These models will important in prophylactic use in at-risk populations including, but not limited to, pregnant women, those individuals infected with sexually transmitted diseases including HIV, and those individuals with recurrent BV.
# [6] = system: biofilms made by G. vaginalis; conditions: Patterson et al. 2007; cited from earlier work
# Gardnerella biofilms = experiment: Fluorescence microscopy of DNase-treated biofilms; type: cell-based, Gardnerella vaginalis; conditions: DNase-treated vs untreated biofilms
# [7] = system: group B Streptococcus biofilm; experiment: Inhibition of group B Streptococcus biofilm formation (A462); type: cell-based; conditions: DNase 100 μg/ml, t=0 hours; FIG. 17
# Protocol: as §1, §3
# The results depicted in FIG. 17 show the dose-response inhibition of group B Streptococcus biofilm formation by DNase that was administered at t=0 hours as assessed by measuring the absorbance of light at 462 nm (A462).
# [8] = system: BV and G. vaginalis infections; conditions: cited from earlier work
# strain 49145 = experiment: MIC by E-test, strain 49145; type: cell-based, Gardnerella vaginalis; conditions: Mueller-Hinton agar with 5% sheep's blood, CLSI, repeated twice
# strain ARG3 = experiment: MIC by E-test, strain ARG3; type: cell-based, Gardnerella vaginalis; conditions: Mueller-Hinton agar with 5% sheep's blood, CLSI, repeated twice
# [9] = reference (77); cited from earlier work
compound,measurement,setting,value
penicillin,Etest susceptibility concentration (range),Atopobium vaginae,0.008 to 0.25 µg/mL
CC(=O)NC[C@H]1CN(c2ccc(N3CCOCC3)c(F)c2)C(=O)O1 [linezolid],Etest susceptibility concentration (range),Atopobium vaginae,0.016 to 0.125 µg/mL
CC[C@H]1OC(=O)[C@H](C)[C@@H](O[C@H]2C[C@@](C)(OC)[C@@H](O)[C@H](C)O2)[C@H](C)[C@@H](O[C@@H]2O[C@H](C)C[C@H](N(C)C)[C@H]2O)[C@](C)(O)C[C@@H](C)CN(C)[C@H](C)[C@@H](O)[C@]1(C)O [azithromycin],Etest susceptibility concentration (range),Atopobium vaginae,<0.016 to 0.32 µg/mL
DNase,extent of biofilm formation (A462),"[1]; DNase 10 μg/ml and 100 μg/ml, administered at time=0 hours, FIG. 1",dramatic reduction
same,reduction in biofilm formation (% biofilm density),"[1]; DNase alone 1 μg/mL, t=0 hours",30%
same,reduction in biofilm formation (A462),"[1]; DNase alone 1 μg/mL, t=0 hours, FIG. 8 (C)",30%
same,reduction in biofilm formation (% biofilm density),"[1]; DNase alone 100 μg/mL, t=0 hours",75%
same,extent of biofilm formation (% biofilm density),[2],dramatic reduction
same,bacterial killing in biofilm cultures,[3]; DNase alone,does not kill the bacteria
same,release of biofilm-embedded bacteria,"[3]; DNase, FIGS. 13-15",released into the supernatant
same,breakdown of established biofilms,[4],dose-dependent breakdown
same,breakdown of established biofilms,[5],dose-dependent breakdown
same,establishment of vaginal colonization,G. Vaginalis ARG37,inhibited the establishment of colonization
same,reduction in biofilm formation or breakdown,[6],no reduction in biofilm formation or breakdown
same,biofilm matrix and overall density by fluorescence microscopy,Gardnerella biofilms,decrease in the biofilm matrix and in overall density
same,extent of biofilm formation (A462),[7],dramatic reduction
Cc1ncc([N+](=O)[O-])n1CCO [metronidazole],cure rates (by Amsel criteria),"[8]; at four weeks, oral regimens for one week",approximately 80%
same,early rates of clinical cure,[8]; multiple divided-dose oral regimens for one week,> 90%
same,Minimum Inhibitory Concentration (MIC),strain 49145,4
same,Minimum Inhibitory Concentration (MIC),strain ARG3,4
same,half-life,[9],6 to 7 h
O=C(O)c1cn(C2CC2)c2cc(N3CCNCC3)c(F)cc2c1=O [ciprofloxacin],Etest susceptibility concentration (range),Atopobium vaginae,0.023 to 0.25 µg/mL
CCS(=O)(=O)CCn1c([N+](=O)[O-])cnc1C [Tinidazole],half-life,[9],12 to 14 h
CC1(C)S[C@@H]2[C@H](NC(=O)[C@H](N)c3ccccc3)C(=O)N2[C@H]1C(=O)O [ampicillin],Etest susceptibility concentration (range),Atopobium vaginae,<0.016 to 0.94 µg/mL
